Experimental data: PubChem BioAssay (NCI)
“And” between values parts separate entries of the source, which are not always exact repeats. Equal values may be shown once.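 Growth conditions: 96-well plates. Treatment: test compound, 48 hours, 5 concentrations. Analysis: linear interpolation between bracketing concentrations; unreached endpoints set to highest concentration. The concentration for 50% growth inhibition is given as GI50. TGI: concentration producing complete growth inhibition.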

Experiments:
Test in all cases: NCI anticancer screen, dose series, 48 h
SR leukemia = system: SR leukemia
A498 renal = system: A498 renal
LOX IMVI melanoma = system: LOX IMVI melanoma
MCF7 breast = system: MCF7 breast
HL-60(TB) leukemia = system: HL-60(TB) leukemia
CCRF-CEM leukemia = system: CCRF-CEM leukemia
OVCAR-8 ovarian = system: OVCAR-8 ovarian
ACHN renal = system: ACHN renal
MDA-MB-435 = system: MDA-MB-435
HCT-15 colon = system: HCT-15 colon

SMILES | GI50 (SR leukemia) | TGI (SR leukemia) | GI50 (A498 renal) | TGI (A498 renal) | GI50 (LOX IMVI melanoma) | TGI (LOX IMVI melanoma) | GI50 (MCF7 breast) | TGI (MCF7 breast) | GI50 (HL-60(TB) leukemia) | TGI (HL-60(TB) leukemia) | GI50 (CCRF-CEM leukemia) | TGI (CCRF-CEM leukemia) | GI50 (OVCAR-8 ovarian) | TGI (OVCAR-8 ovarian) | GI50 (ACHN renal) | TGI (ACHN renal) | GI50 (MDA-MB-435) | TGI (MDA-MB-435) | GI50 (HCT-15 colon) | TGI (HCT-15 colon)
CN1C(=O)CCC(N2C(=O)c3cccc(NCCOCCOCCNC(=O)c4cc5c(o4)C(=O)c4ccccc4C5=O)c3C2=O)C1=O (centres undefined) | 1990 nM | 7.5 µM | 1710 nM | 3.2 µM | 1110 nM | 3 µM | 1460 nM | 3.54 µM | 2030 nM | 5.88 µM | 3750 nM | 24.4 µM | 2.45 µM | 14.7 µM | 2040 nM | 5.17 µM | 1050 nM | 2.28 µM | 1770 nM | 3.83 µM
CC1=CCC2CC1C(C(=O)c1c[nH]c3ccccc13)=NC2(C)C (centres undefined) | – | > 100 µM | – | > 100 µM | – | > 100 µM | – | > 100 µM | – | > 100 µM | – | > 100 µM | – | > 100 µM | – | > 100 µM | – | > 100 µM | – | > 100 µM
O=C1Nc2c(Cl)cc(Cl)cc2/C1=N/N=C/c1ccco1 | – | > 100 µM | – | 57.7 µM | – | 35 µM | – | > 100 µM | – | > 100 µM | – | > 100 µM | – | > 100 µM | – | > 100 µM | – | > 100 µM | – | > 100 µM
Cn1ncc(Cl)c1-c1cc(C(=O)N[C@H](CN)Cc2cccc(F)c2)sc1Cl | 749 nM and 1540 nM | 3.11 µM and 4.74 µM | 126 nM and 104 nM | 0.705 µM and 0.779 µM | 1080 nM and 2850 nM | 2.91 µM and 11.3 µM | – | 2.6 µM and 11.4 µM | > 3710 nM and 2480 nM | > 6.27 µM and 8.32 µM | 349 nM and 294 nM | > 10 µM and 10.5 µM | 3.82 µM and 8.34 µM | > 7.9 µM and 23.8 µM | 2570 nM and 2760 nM | > 10 µM and 15.4 µM | 1310 nM and 2360 nM | > 5.99 µM and 12.7 µM | 1440 nM and 2590 nM | > 10 µM and 16.2 µM
CN(C)c1ccc(/C=N/NC(N)=S)nc1 | 2730 nM | > 100 µM | 1920 nM | 9.37 µM | 2710 nM | > 100 µM | 1640 nM | > 100 µM | 1800 nM | 37.9 µM | 2820 nM | 21.8 µM | 3.24 µM | > 100 µM | 2550 nM | > 100 µM | 4010 nM | > 100 µM | 4110 nM | > 100 µM
CCSC[C@@H]1C[C@](O)(c2ccc(Cl)cc2)[C@@H](c2ccc(Cl)cc2)O1 | 11100 nM | 28.2 µM | 17800 nM | 32.1 µM | 18500 nM | 40.7 µM | 21800 nM | 48.5 µM | 15200 nM | 36 µM | 20500 nM | 59.4 µM | 17.4 µM | 45 µM | 19600 nM | 36.6 µM | 19200 nM | 40.1 µM | 18800 nM | 38.7 µM
Cc1cc2c(F)c(Oc3ncnc(Nc4ccc(N5C[C@@H](C)N[C@@H](C)C5)cc4)c3C#N)cc(F)c2[nH]1 | 1630 nM | 4.35 µM | 13.4 nM | 0.384 µM | 1600 nM | 3.08 µM | 1700 nM | 4.29 µM | 1930 nM | 3.95 µM | 1640 nM | 9.16 µM | 2.8 µM | 9.11 µM | 2050 nM | 4.21 µM | 2030 nM | 4.61 µM | 1730 nM | 4.24 µM
COc1cc2nc(N3CCCN(C)CC3)nc(NC3CCN(Cc4ccccc4)CC3)c2cc1OC | 2230 nM | 6.66 µM | 904 nM | 7.66 µM | 1680 nM | 3.28 µM | 2080 nM | 7.65 µM | 1830 nM | 4.3 µM | 2370 nM | > 24.6 µM | 3.26 µM | 11.8 µM | 2250 nM | 5.13 µM | 1740 nM | 3.22 µM | 1830 nM | 4.41 µM
NC(=S)N/N=C/c1ccc(OC(=O)COc2cc(Cl)c(Cl)cc2Cl)cn1 | 4700 nM | > 100 µM | 14200 nM | > 100 µM | 3090 nM | 26.6 µM | 2090 nM | > 100 µM | 3970 nM | 47.9 µM | 2800 nM | > 100 µM | 2.26 µM | > 100 µM | 3030 nM | > 100 µM | 6680 nM | > 100 µM | 6840 nM | > 100 µM
